Data taken from patent publication US8951999B2, “Compounds” (Orexo AB, priority 2009, dated 2015).
pIC50: −log10 of the molar value.

These compounds were tested against T1, recombinant human mPGES-1 (Homo sapiens, UniProt O14684) (assay: Assay A: mPGES-1 enzyme assay (HTRF detection of PGE2)). Details: biological assay A (compounds 1-41, 54, 55, 62, 73); PGE2 formation from PGH2, HTRF; read-out: mPGES-1 inhibitory effect IC50.
T1 sequence (O14684 1-152): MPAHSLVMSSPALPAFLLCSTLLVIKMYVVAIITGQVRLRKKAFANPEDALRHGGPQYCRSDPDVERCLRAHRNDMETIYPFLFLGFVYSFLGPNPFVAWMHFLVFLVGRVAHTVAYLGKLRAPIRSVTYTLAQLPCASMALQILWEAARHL
Format: biochemical
Description: Assay A: mPGES-1 Enzyme Assay
The basis of the assay used is to measure the inhibition of microsomal prostaglandin E2 synthase-1 (mPGES-1) dependent prostaglandin (PG) E2 formation from PGH2 by different compounds. Thus, the formation of PGE2 is used as signal and a lowering of this signal can be interpreted as inhibition of mPGES-1. Similar assays to measure inhibition of mPGES-1 have previously been described in the literature.
• Glutathione (Sigma, G-4251) • Freeze culture in Rosetta E coli expression strain. • LB growth media with Ampillicillin (Amp) final concentration in culture 50 μg/mL • Chloroamphenicol stock 34 mg/mL (chloro) final concentration in culture 34 μg/mL • Sterile growth flasks for 500 mL-1 liter cultures • 0.1 M KPi buffer pH 7.4 • 9.25% HCl • PGH2 (0.25 mM) • Fe (II) Cl2 tetrahydrate, 99% (Sigma, 220229) • 384-well plate with compounds • 96-well plate, polypropylene (Thermo fast 96 skirted VWR) • 384-well plate polypropylene PCR plate (Greiner 785201) • Greiner 384-well plate pp (In vitro cat. no. 781280) • Adhesive sealing film for 96-well plates (Sigma-Aldrich) • Aluminium foil (PCR foil, 310-0030-127-471 from Labora) • PBS (GIBCO 14040) • Prostaglandin E2 Assay (Cisbio, cat. no. 62P2APEC) • Biomek FX robot (Beckman Coulter) • Biomek NX robot (Beckman Coulter) • Multidrop; micro or combi (ThermoLabsystems) • Plate reader: Safire2 (Tecan)
Microsomes from Rosetta E. coli bacteria expressing recombinant human mPGES-1 can be derived as described below:
Inoculate 5 mL LB with Amp and Chloro with bacteria from freeze culture. Incubate over night at 37° C. with 200 rpm. Thereafter, inoculate 500-800 mL LB containing Amp and Chloro with the 5 mL on culture and grow to OD640 of 0.6-0.8. Chill the culture to +4° C. before induction. Induce the culture with IPTG at a final concentration of 400 μM. Express the protein at room temp 18-23° C. with 200 rpm shaking over night.
The following steps can be performed on the following day: • 1. Spin down the cells in 250 mL centrifuge flasks for 15 min at 7000 rpm • 2. Dissolve the pellet from 250 mL culture in 12.5 mL homogenization buffer • 3. Disintegrate the cells by sonication, 4×10 seconds at 35% amplitude • 4. Add 2.5 mL MgCl2 (100 mM) and DNase 12.5 μL (0.8 mg/mL) and incubate on ice for 30 min • 5. Spin down the bacteria debris and save the supernatant, 7000 rpm for 15 min • 6. Isolate the protein containing membranes in the supernatant by ultracentrifugation 45000×g for 1 hour. • 7. Discard the supernatant and dissolve the pellet in 20 mM KPi buffer and aliquot the enzyme and store aliquots at −80° C.
Before each experiment is performed an aliquot of the enzyme is thawed and it can then be dissolved in 0.1 M KPi pH 7.4 buffer containing 2.5 mM GSH. 50 μL of this enzyme solution is subsequently dispensed in a 384-well plate at room temperature. 0.5 μL of the inhibitor dissolved in DMSO is thereafter added to each well and incubated for 25 minutes at room temperature. Subsequently, 2 μL of PGH2 dissolved in an appropriate solvent is added to each well and after one minute at room temperature, the acidified stop solution containing FeCl2 is added. 4 μL of the total volume is transferred to a separate plate and diluted 750-fold in two separate steps before quantification of PGE2.
In order to quantitate the amount of PGE2 that has been formed, a homogenous time resolved fluorescent (HTRF) detection of PGE2 can be performed by the use of a commercially available kit from CisBio essentially according to the manufacturer's protocol. […]
Compound `COc1ccc(NC(=O)c2cc(CNC(=O)C3(C)CCCCC3)ccc2Cl)cc1C(=O)Nc1ccc(Br)cc1` [Example 27] has a pIC50 of 8.70.
Work on `COc1ccc(NC(=O)c2cc(CNC(=O)C3(O)CC3)ccc2Cl)cc1C(=O)Nc1ccc(Br)cc1` [Example 28] yielded a pIC50 of 8.40.
In the case of `COc1ccc(NC(=O)c2cc(CNC(=O)C3CCCCC3C)ccc2Cl)cc1C(=O)Nc1ccc(Br)cc1` (stereo not shown) [Example 29], the pIC50 was 8.70.
With `COc1ccc(NC(=O)c2cc(CNC(=O)C(C)(F)F)ccc2Cl)cc1C(=O)Nc1ccc(Br)cc1` [Example 30] the pIC50 was 9.00.
Work on `COc1ccc(NC(=O)c2cc(CNC(=O)C3(C(F)(F)F)CC3)ccc2Cl)cc1C(=O)Nc1ccc(Br)cc1` [Example 31] yielded a pIC50 of 8.70.
`COc1ccc(NC(=O)c2cc(CNC(=O)C(C)C(F)(F)F)ccc2Cl)cc1C(=O)Nc1ccc(Br)cc1` (stereo not shown) [Example 32] was tested, and the pIC50 was 8.70.
Compound `COc1ccc(NC(=O)c2cc(CNC(=O)C(C)(N)C(F)(F)F)ccc2Cl)cc1C(=O)Nc1ccc(Br)cc1` (stereo not shown) [Example 33] has a pIC50 of 8.70.
Compound `CCC(C)(CC)C(=O)NCc1ccc(Cl)c(C(=O)Nc2ccc(OC)c(C(=O)Nc3ccc(Br)cc3)c2)c1` [Example 34] has a pIC50 of 8.70.
In the case of `COc1ccc(NC(=O)c2cc(CNC(=O)C(C)(C)C)ccc2Cl)cc1C(=O)NC1CC1` [Example 35], the pIC50 was roughly 6.30.
For `COc1ccc(NC(=O)c2cc(CNS(=O)(=O)C3CC3)ccc2Cl)cc1C(=O)Nc1ccc(Br)cc1` [Example 36, N-[4-Methoxy-3-(4-bromophenyl)aminocarbonyl-phenyl]-2-chloro-5-cyclopropylsulphonylaminomethyl-benzamide], the pIC50 was 8.22.
`CC1CCN(c2ccc(NC(=O)c3cc(CNC(=O)C(C)(C)C)ccc3Cl)cc2C(=O)Nc2ccc(Br)cc2)CC1` [Example 37, N-[4-(4-Methyl-piperidin-1-yl)-3-(4-bromophenyl)aminocarbonyl-phenyl]-2-chloro-5-(tert-butylcarbonylamino)methyl-benzamide] gave a pIC50 of 9.00.
In the case of `CC(C)(C)C(=O)NCc1ccc(Cl)c(C(=O)Nc2ccc(OCC3CC3)c(C(=O)N[C@H]3CC[C@H](C(F)(F)F)CC3)c2)c1` [Example 38, N-[4-(Cyclopropylmethyloxy)-3-[trans-(4-trifluoromethyl-cyclohexyl)amino]carbonyl-phenyl]-2-chloro-5-(tert-butylcarbonylamino)methyl-benzamide], the pIC50 was 8.40.
Work on `CC(C)(C)C(=O)NCc1ccc(Cl)c(C(=O)Nc2ccc(F)c(C(=O)Nc3ccc(Br)cc3)c2F)c1` [Example 39] yielded a pIC50 of 7.74.
`CC(C)(C)C(=O)NCc1ccc(Cl)c(C(=O)Nc2ccc(OCC(F)F)c(C(=O)NCC#Cc3ccccc3)c2)c1` [Example 40] was tested, and the pIC50 was 8.30.
Work on `CC(C)(C)C(=O)NCc1ccc(Cl)c(C(=O)Nc2ccc(OCC(F)(F)F)c(C(=O)NCC3CC3)c2)c1` [Example 41] yielded a pIC50 of 8.52.
`CC(C)(C)C(=O)NCc1ccc(Cl)c(C(=O)Nc2cc(F)c(F)c(C(=O)Nc3ccc(Br)cc3)c2)c1` [Example 54, N-[3,4-Difluoro-5-(4-bromophenyl)aminocarbonyl-phenyl]-2-chloro-5-(tert-butylcarbonylamino)methyl-benzamide] gave a pIC50 of 8.05.
`Cc1ccc(NC(=O)c2cc(CNC(=O)C(C)(C)C)ccc2Cl)cc1C(=O)Nc1ccc(Br)cc1` [Example 55, N-[4-Methyl-3-(4-bromophenyl)aminocarbonyl-phenyl]-2-chloro-5-(tert-butylcarbonylamino)methyl-benzamide] gave a pIC50 of 7.23.
`CN(C)c1ccc(NC(=O)c2cc(CNC(=O)C(C)(C)C)ccc2Cl)cc1C(=O)N[C@H]1CC[C@H](C(F)(F)F)CC1` [Example 62, N-[4-(dimethylamino)-3-(trans-4-trifluoromethylcyclohexyl)aminocarbonyl-phenyl]-2-chloro-5-(tert-butylcarbonylamino)methyl-benzamide] gave a pIC50 of 7.96.
In the case of `CC(C)(C(=O)NCc1ccc(Cl)c(C(=O)Nc2cnc(OCC(F)F)c(C(=O)Nc3ccc(Br)cc3)c2)c1)C(F)(F)F` [Example 73, N-[2-(2,2-Difluoroethyl)oxy-3-(4-bromophenyl)aminocarbonyl-pyridin-5-yl]-2-chloro-5-[(2,2,2-trifluoro-1,1-dimethyl-ethyl)carbonylamino]methyl-benzamide], the pIC50 was 8.15.
